According to publication PMC6100582 (Molecules : A Journal of Synthetic Chemistry and Natural …, 2018):
Converted amounts (≈) assume the structure as drawn. Like-named read-outs stand apart in the source and are kept apart here.

Columns and labels:
[1] = tested on: Sindbis Virus; assay: microbe, parasite or virus in culture; assay type: cell-based; details: Vero
[2] = tested on: Mycobacterium marinum CAMP 5644; assay: Antimycobacterial susceptibility assay (MIC determination); assay type: cell-based; details: CAMP5644, 504 h
Method: The broth dilution micro-method in Middlebrook 7H9 medium (Difco, Lawrence, KS, USA) supplemented with ADC Enrichment (Becton, Dickinson and Comp.) was used to determine MIC as previously described. […] Bacterial inocula were prepared by transferring colonies from culture to sterile water. The cell density was adjusted to 0.5 McFarland units using a densitometer (Densi-La-Meter, LIAP, Riga, Latvia). The final inoculum was made by 1:1000 dilution of the suspension with sterile water. Drug-free controls, sterility controls and controls consisted of medium and DMSO (Sigma-Aldrich, St. Louis, MO, USA) alone were included. […] Ciprofloxacin (CIP), rifampicin (RIF) and isoniazid (INH) (Sigma-Aldrich, St. Louis, MO, USA) were used as the standards.

[3] = tested on: Candida albicans ATCC 90028; assay: In vitro antifungal susceptibility testing (MIC determination); assay type: cell-based; details: ATCC90028
[4] = tested on: panel of bacteria, Mycobacterium strains and fungi; assay: Antimicrobial screening, panel of bacteria, Mycobacterium strains and fungi; assay type: cell-based; details: S. aureus, S. pneumoniae, A. baumannii and C. albicans ATCC 90028
[5] = tested on: panel of nine different human cancer cell lines; assay: Cytostatic activity, panel of nine human cancer cell lines; assay type: cell-based; details: all nine tested cell lines, read-out: IC50 (range over all tested cell lines)
Method: To gain insight into cytotoxicity of newly synthesized compounds 4a–f and 5a–f, their cytostatic activity was evaluated in vitro against a panel of nine different human cancer cell lines, representing various solid tumor types including pancreatic adenocarcinoma (Capan-1), chronic myeloid leukemia (Hap1), colorectal carcinoma (HCT-116), lung carcinoma (NCI-H460), acute lymphoblastic leukemia (DND-41), acute myeloid leukemia (HL-60), chronic myeloid leukemia (K-562), multiple myeloma (MM.1S) and non-Hodgkin lymphoma (Z-138).
Cytostatic activity was evaluated in vitro on nine different types of human tumor cell lines: Capan-1, Hap1, HCT-116, and NCI-H460, as well as hematological tumors such as DND-41, HL-60, K-562, MM.1S and Z-138 as described previously. All human tumor cell lines were acquired from the American Type Culture Collection (ATCC, Manassas, VA, USA), except for the DND-41 cell line which was purchased from the Deutsche Sammlung von Mikroorganismen und Zellkulturen (DSMZ Leibniz-Institut, Braunschweig, Germany) and the Hap1 cell line which was purchased from Horizon Discovery (Waterbeach, UK). […] The plates were incubated and monitored at 37 °C for 72 h in an IncuCyte (Essen BioScience Inc., Ann Arbor, MI, USA) for real-time imaging. […]

[6] = tested on: broad variety of viral infections; assay: Antiviral evaluation, broad variety of viruses; assay type: cell-based; details: Vero cells; for EC50: reovirus-1, sindbis virus and Punta Toro virus, read-out: EC50 (range over viruses)
[7] = tested on: Vero cell cultures; details: Vero cells, microscopically detectable alteration of cell morphology; unit not printed in head (EC50 columns µM)
[8] = read-out: EC50 Sindbis Virus, MTS
[9] = Mycobacterium marinum CAMP 5644, 21 days, 28 °C, read-out: MIC
[10] = read-out: EC50 Sindbis Virus, Visual CPE Score

COc1cc(NC(C)CCCNC(=O)/C=C/C(=O)Nc2ccc(Cl)cc2)c2ncccc2c1 (stereo not shown) [Compound 4d, (2E)-N-(4-Chlorophenyl)-N′-{4-[(6-methoxyquinolin-8-yl)amino]pentyl}but-2-enediamide]
EC50 [1, 8]: > 50 µM
MIC [2, 9]: 64 µg/mL (≈ 137 µM)
MIC [3]: 12.5 µg/mL (≈ 26.8 µM)
MIC values (range over strains) [4]: 6.1 to 12.5 µg/mL

COc1cc(NC(C)CCCNC(=O)/C=C/C(=O)Nc2cccc(F)c2)c2ncccc2c1 (stereo not shown) [Compound 4a, (2E)-N-(3-Fluorophenyl)-N′-{4-[(6-methoxyquinolin-8-yl)amino]pentyl}but-2-enediamide]
EC50 [1, 8]: > 50 µM
MIC [2, 9]: > 256 µg/mL
IC50 [5]: 5.7 to 31.2 µM
MIC [3]: > 100 µg/mL

COc1cc(NC(C)CCCNC(=O)/C=C/C(=O)Nc2cccc(Cl)c2)c2ncccc2c1 (stereo not shown) [Compound 4c, (2E)-N-(3-Chlorophenyl)-N′-{4-[(6-methoxyquinolin-8-yl)amino]pentyl}but-2-enediamide]
selectivity index (SI), MCC and EC50 ratio [6]: 1.8–3.7
EC50 [6]: 3.1 to 5.5 µM
EC50 [1, 8]: 3 µM
EC50 [1, 10]: > 50 µM
Cytotoxicity MCC (minimum cytotoxic concentration) [7]: 10
MIC ([2]; Mycobacterium marinum): 128 µg/mL (≈ 274 µM)
MIC [3]: > 100 µg/mL

COc1cc(NC(C)CCCNC(=O)/C=C/C(=O)Nc2ccc(C(F)(F)F)cc2)c2ncccc2c1 (stereo not shown) [Compound 4f, (2E)-N′-{4-[(6-Methoxyquinolin-8-yl)amino]pentyl}-N-[4-(trifluoromethyl)phenyl]but-2-enediamide]
EC50 [1, 8]: > 50 µM
MIC [2, 9]: 64 µg/mL (≈ 128 µM)
MIC [3]: > 100 µg/mL

COc1cc(NC(C)CCCNC(=O)/C=C/C(=O)Nc2cccc(C(F)(F)F)c2)c2ncccc2c1 (stereo not shown) [Compound 4e, (2E)-N′-{4-[(6-Methoxyquinolin-8-yl)amino]pentyl}-N-[3-(trifluoromethyl)phenyl]but-2-enediamide]
selectivity index (SI), MCC and EC50 ratio [6]: 1.8–3.7
EC50 [6]: 3.1 to 5.5 µM
EC50 [1, 8]: 5.3 µM
EC50 [1, 10]: 4.2 µM
Cytotoxicity MCC (minimum cytotoxic concentration) [7]: 10
MIC [2, 9]: 256 µg/mL (≈ 511 µM)
MIC [3]: > 100 µg/mL

COc1cc(NC(C)CCCNC(=O)/C=C/C(=O)Nc2ccc(F)cc2)c2ncccc2c1 (stereo not shown) [Compound 4b, (2E)-N-(4-Fluorophenyl)-N′-{4-[(6-methoxyquinolin-8-yl)amino]pentyl}but-2-enediamide]
EC50 [1, 8]: > 50 µM
MIC [2, 9]: 64 µg/mL (≈ 142 µM)
MIC [3]: > 100 µg/mL
